Source: patent US12486284B2, “Ubiquitin-specific protease inhibitor and preparation method therefor and use thereof” (CHASER THERAPEUTICS, INC., priority 2019, dated 2025)
Where two headings read alike, the source gives them in different places.

Assays:
USP28 = target: T1, USP28 (Homo sapiens, UniProt Q96RU2); assay: USP28 activity measured using ubiquitin-rhodamine 110 method; assay type: biochemical; settings: for IC50: purified USP28 4 nM, ubiquitin-rhodamine 110 125 nM, 30 min preincubation
T1 construct: purchased R&D Systems
T1 sequence (Q96RU2 1-1077): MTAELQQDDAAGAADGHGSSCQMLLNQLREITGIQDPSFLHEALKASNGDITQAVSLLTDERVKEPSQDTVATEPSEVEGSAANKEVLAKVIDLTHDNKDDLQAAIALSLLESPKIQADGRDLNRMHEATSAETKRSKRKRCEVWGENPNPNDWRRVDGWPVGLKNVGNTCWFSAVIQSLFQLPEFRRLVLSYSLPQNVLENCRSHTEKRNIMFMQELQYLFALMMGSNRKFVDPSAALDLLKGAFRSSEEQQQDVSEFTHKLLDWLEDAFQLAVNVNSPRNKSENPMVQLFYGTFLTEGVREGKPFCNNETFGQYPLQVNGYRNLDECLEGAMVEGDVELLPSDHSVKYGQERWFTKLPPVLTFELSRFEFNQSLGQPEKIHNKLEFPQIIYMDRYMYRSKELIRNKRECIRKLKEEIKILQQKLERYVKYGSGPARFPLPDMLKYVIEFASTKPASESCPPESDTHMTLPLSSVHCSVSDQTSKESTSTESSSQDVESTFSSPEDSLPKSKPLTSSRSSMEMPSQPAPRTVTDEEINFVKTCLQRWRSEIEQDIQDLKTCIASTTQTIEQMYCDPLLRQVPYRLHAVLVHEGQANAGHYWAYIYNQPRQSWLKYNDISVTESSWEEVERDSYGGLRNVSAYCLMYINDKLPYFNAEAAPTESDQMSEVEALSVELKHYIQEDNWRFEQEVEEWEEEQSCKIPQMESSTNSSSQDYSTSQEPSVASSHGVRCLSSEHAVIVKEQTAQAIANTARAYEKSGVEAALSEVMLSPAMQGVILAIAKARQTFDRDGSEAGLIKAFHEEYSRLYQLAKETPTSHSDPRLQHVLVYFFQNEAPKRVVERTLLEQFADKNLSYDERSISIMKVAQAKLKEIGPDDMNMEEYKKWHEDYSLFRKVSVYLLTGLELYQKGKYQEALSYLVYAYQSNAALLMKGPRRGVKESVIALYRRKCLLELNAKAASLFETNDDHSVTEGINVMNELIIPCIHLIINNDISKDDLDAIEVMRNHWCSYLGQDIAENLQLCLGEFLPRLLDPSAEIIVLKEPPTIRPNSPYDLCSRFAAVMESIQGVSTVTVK
Protocol: USP28 activity was measured using ubiquitin-rhodamine 110 method.
(§1) Purified USP28 and the ubiquitin-rhodamine 110 substrate used for measuring DUBs activity were both from R&D Systems. Test compounds were first dissolved in DMSO to prepare a 10 mM stock solution, and then the stock solution was diluted with a buffer solution [containing 20 mM Tris-HCl (pH 8.0), 2 mM CaCl2), 3 mM BME, 0.01% Prionix, 0.01% Triton X-100] to the desired concentration (with DMSO content less than or equal to 0.5%). The dilution was mixed well with USP28 (final concentration 4 nM) in a 96-well plate and incubated at room temperature for 30 min, and then added with the substrate (ubiquitin-rhodamine 110) to 125 nM. The final volume of the whole reaction system was 20 μL. The released fluorescence (excitation wavelength 485 nm, emission wavelength 535 nm) was detected immediately on a microplate reader after the addition of the substrate. The inhibitory rate of the test compound against USP28 was calculated according to the following formula: Inhibition %=1−[(test compound+fluorescence value of substrate−fluorescence value of test compound (no substrate))/mean fluorescence value of DMSO control group−fluorescence value of test compound (no substrate)]
According to the inhibitory rates of the test compound against USP28 under different concentrations, IC50 was calculated.

USP25 = target: T2, USP25 (Homo sapiens, UniProt Q9UHP3); assay: USP25 activity measured using ubiquitin-rhodamine 110 method; assay type: biochemical; settings: for IC50: purified USP25 15 nM, ubiquitin-rhodamine 110 125 nM, 30 min preincubation
T2 construct: purchased R&D Systems
T2 sequence (Q9UHP3 1-1055): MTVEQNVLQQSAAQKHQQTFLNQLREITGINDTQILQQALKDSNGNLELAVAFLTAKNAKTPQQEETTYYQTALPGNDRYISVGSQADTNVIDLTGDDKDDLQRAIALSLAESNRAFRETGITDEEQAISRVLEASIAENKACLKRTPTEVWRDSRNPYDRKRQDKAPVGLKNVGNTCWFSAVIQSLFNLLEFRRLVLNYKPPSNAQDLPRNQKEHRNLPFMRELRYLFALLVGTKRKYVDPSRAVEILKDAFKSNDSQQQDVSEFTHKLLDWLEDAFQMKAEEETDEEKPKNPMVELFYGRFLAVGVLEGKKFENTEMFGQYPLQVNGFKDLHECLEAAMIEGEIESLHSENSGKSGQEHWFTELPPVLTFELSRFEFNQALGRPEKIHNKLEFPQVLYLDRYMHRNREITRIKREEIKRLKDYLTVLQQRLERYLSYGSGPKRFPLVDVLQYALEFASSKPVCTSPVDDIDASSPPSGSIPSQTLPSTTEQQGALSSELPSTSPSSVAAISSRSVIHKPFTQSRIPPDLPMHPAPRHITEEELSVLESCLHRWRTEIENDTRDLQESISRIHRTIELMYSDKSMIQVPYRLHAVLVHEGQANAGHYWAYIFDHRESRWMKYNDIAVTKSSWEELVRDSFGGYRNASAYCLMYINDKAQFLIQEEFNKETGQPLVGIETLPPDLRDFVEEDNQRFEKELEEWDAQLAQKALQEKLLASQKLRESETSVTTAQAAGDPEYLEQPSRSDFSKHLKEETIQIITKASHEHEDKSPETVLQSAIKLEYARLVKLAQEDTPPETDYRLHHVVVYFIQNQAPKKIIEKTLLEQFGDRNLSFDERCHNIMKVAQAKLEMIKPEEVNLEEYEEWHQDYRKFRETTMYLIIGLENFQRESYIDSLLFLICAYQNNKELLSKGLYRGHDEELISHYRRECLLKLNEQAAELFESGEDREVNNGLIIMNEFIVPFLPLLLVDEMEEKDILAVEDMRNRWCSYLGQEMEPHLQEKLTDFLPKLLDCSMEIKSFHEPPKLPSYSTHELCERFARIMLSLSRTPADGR
Protocol: USP25 activity was measured using ubiquitin-rhodamine 110 method.
as §1, with “Purified USP25” for “Purified USP28”, “with USP25” for “with USP28”, “concentration 15” for “concentration 4”, “the substrate, and the” for “the substrate. The”, “against USP25” for “against USP28”
As in Example 11, according to the inhibitory rates of the test compound against USP25 under different concentrations, IC50 was calculated.

[1] = read-out: Inhibitory activity against USP28 (IC50)
[2] = read-out: Inhibitory activity against USP25 (IC50)
[3] = Inhibitory activity against USP28 (IC50)
[4] = Inhibitory activity against USP25 (IC50)
[5] = ratio of IC50 of related 3-NH2 compound (F) to IC50 of 3-NHMe compound disclosed herein (E)

| Structure (SMILES) | IC50 (USP28; [1]) [µM] | IC50 (USP25; [2]) [µM] | IC50 (USP28; [3]) [µM] | other results |
| --- | --- | --- | --- | --- |
| CNc1c(C(=O)NCCc2ccc(N3C[C@H]4CC[C@@H](C3)N4)cc2)sc2nc(C)cc(C)c12 [Compound I-26] | 0.1 to 1 | 5 to 10 |  |  |
| CNc1c(C(=O)NCCc2ccc(N3C[C@H]4CC[C@@H](C3)N4)cc2)sc2nc(C)cc(C(F)(F)F)c12 [Compound I-27] |  |  | < 0.1 | IC50 (USP25; [4]): < 0.1 µM |
| CNc1c(C(=O)NCCc2ccc(N3C[C@H]4CC[C@@H](C3)N4)cc2)sc2nc(C(F)F)cc(C)c12 [Compound I-28] |  |  | < 0.1 | IC50 (USP25; [4]): < 0.1 µM |
| CNc1c(C(=O)NCCc2ccc(N3C[C@H]4CC[C@@H](C3)N4)cc2)sc2nc(C)c(F)cc12 [Compound I-29] |  | 0.1 to 1 | < 0.1 |  |
| CNc1c(C(=O)NCCc2ccc(N3C[C@H]4CC[C@@H](C3)N4)cc2)sc2nc(C)c(C)cc12 [Compound I-30] | 0.1 to 1 | 1 to 5 |  |  |
| CCc1nc2sc(C(=O)NCCc3ccc(N4C[C@H]5CC[C@@H](C4)N5)cc3)c(NC)c2cc1C [Compound I-31] |  | 0.1 to 1 | < 0.1 |  |
| CCc1nc2sc(C(=O)NCCc3ccc(N4C[C@H]5CC[C@@H](C4)N5)cc3)c(NC)c2c(C(F)(F)F)c1C [Compound I-32] |  | 5 to 10 | < 0.1 |  |
| CNc1c(C(=O)NCCc2ccc(N3C[C@H]4CC[C@@H](C3)N4)c(C)c2)sc2nc(C)ccc12 [Compound I-33] |  | 5 to 10 | < 0.1 |  |
| CCc1cc(CCNC(=O)c2sc3nc(C)ccc3c2NC)ccc1N1[C@@H]2CC[C@H]1CNC2 [Compound I-34] |  | 0.1 to 1 | < 0.1 |  |
| CNc1c(C(=O)NCCc2ccc(N3C[C@H]4CC[C@@H](C3)N4)c(C3CC3)c2)sc2nc(C)ccc12 [Compound I-35] |  | 0.1 to 1 | < 0.1 |  |
| CNc1c(C(=O)NCCc2ccc(N3C[C@H]4CC[C@@H](C3)N4)c(OC)c2)sc2nc(C)ccc12 [Compound I-36] |  |  | < 0.1 | IC50 (USP25; [4]): < 0.1 µM |
| CNc1c(C(=O)NCCc2ccc(N3C[C@H]4CC[C@@H](C3)N4)c(C#N)c2)sc2nc(C)ccc12 [Compound I-37] |  |  | < 0.1 | IC50 (USP25; [4]): < 0.1 µM |
| CNc1c(C(=O)NCCc2ccc(N3C[C@H]4CC[C@@H](C3)N4)c(Cl)c2)sc2nc(C)ccc12 [Compound I-38] |  | > 10 | < 0.1 |  |
| CNc1c(C(=O)NCCc2ccc(N3C[C@H]4CC[C@@H](C3)N4)cc2F)sc2nc(C)ccc12 [Compound I-39] | 0.1 to 1 | 0.1 to 1 |  |  |
| CNc1c(C(=O)NCCc2ccc(N3C[C@H]4CC[C@@H](C3)N4)c(F)c2)sc2nc(C)ccc12 [Compound I-40] |  | 0.1 to 1 | < 0.1 |  |
| CNc1c(C(=O)NCCc2ccc(N3C[C@H]4CC[C@@H](C3)N4)c(C(F)(F)F)c2)sc2nc(C)ccc12 [Compound I-41] | 0.1 to 1 | > 10 |  |  |
| CNc1c(C(=O)NCCc2cc(F)c(N3C[C@H]4CC[C@@H](C3)N4)cc2F)sc2nc(C)ccc12 [Compound I-42] |  | > 10 | < 0.1 |  |
| CNc1c(C(=O)NCCc2cc(F)c(N3C[C@H]4CC[C@@H](C3)N4)c(F)c2)sc2nc(C)ccc12 [Compound I-43] |  | > 10 | < 0.1 |  |
| CNc1c(C(=O)NCCc2cc(F)c(N3C[C@H]4CC[C@@H](C3)N4)c(Cl)c2)sc2nc(C)ccc12 [Compound I-44] |  | > 10 | < 0.1 |  |
| CNc1c(C(=O)NCCc2c(F)cc(N3C[C@H]4CC[C@@H](C3)N4)cc2F)sc2nc(C)ccc12 [Compound I-45] |  | > 10 | < 0.1 |  |
| CNc1c(C(=O)NCCc2ccc(N3C[C@H]4CC[C@@H](C3)N4)c(F)c2F)sc2nc(C)ccc12 [Compound I-46] | 0.1 to 1 | 5 to 10 |  |  |
| CNc1c(C(=O)NCCc2cc(F)c(N3C[C@H]4CC[C@@H](C3)N4)c(F)c2F)sc2nc(C)ccc12 [Compound I-47] |  | 5 to 10 | < 0.1 |  |
| CNc1c(C(=O)NCCc2c[nH]c3ccccc23)sc2ncccc12 [Compound I-48] | < 0.1 | 5 to 10 |  |  |
| CNc1c(C(=O)NCCc2c[nH]c3ccccc23)sc2nc(C)ccc12 [Compound I-49] | < 0.1 | 1 to 5 |  | IC50(F)/IC50(E) USP28 (USP28; [5]): 5.0; IC50(F)/IC50(E) USP25 (USP25; [5]): >7 |
| CCc1ccc2c(NC)c(C(=O)NCCc3c[nH]c4ccccc34)sc2n1 [Compound I-50] | < 0.1 | 1 to 5 |  |  |
| CCCc1ccc2c(NC)c(C(=O)NCCc3c[nH]c4ccccc34)sc2n1 [Compound I-51] | < 0.1 | 1 to 5 |  |  |
| CCc1nc2sc(C(=O)NCCc3c[nH]c4ccccc34)c(NC)c2cc1C [Compound I-52] | < 0.1 | 5 to 10 |  |  |
| CNc1c(C(=O)NCCc2c[nH]c3ccccc23)sc2nc(C)cc(C)c12 [Compound I-53] | 0.1 to 1 | > 10 |  |  |
